{"source": "patent US9326506B2", "about": "“Preparation method, agricultural composition and applications of natural brassinolide analogs” (CHENGDU NEWSUN CROPSCIENCE CO., LTD, priority 2012, dated 2016)", "test_system": "rice", "assay": "Low temperature assay on rice seedlings", "format": "in vivo", "protocol": "According to a low temperature assay, we measured parameters including plant height, number of leaf, area of leaf, number of tiller, weight of root at low temperature to completely determine effects of the natural brassinolide analogues on the resistance to low temperature of a plant.\nThe natural brassinolide analogues, BR1, BR2, BR3, BR4, BR5 and BR6, used herein, were those prepared by the method of Example 1. Respectively the analogues were dissolved into 95% (V/V) ethanol solution, and then diluted with pure water to 1 mg/L, 0.1 mg/L, 0.01 mg/L, 0.001 mg/L and 0.0001 mg/L. In addition, pure water was used as a control.\nAfter rice seeds were disinfected by using 5% sodium hypochlorite solution treatment, they were rinsed with distilled water until their pH>7, placed into a petri dish in a dark incubator, and cultured by using water at 30° C.±2° C. for 9 days. Then respectively the nine-day-old etiolated seedlings of rice were immersed in the above solutions containing different concentrations of the natural brassinolide analogues or pure water, and cultured at the temperature of 1° C., 2° C., 3° C., 4° C. and 5° C. for 24 hr. The parameters including plant height, area of leaf and weight of root after 3, 6, 9 and 12 days and number of leaf and number of tiller after 12 days were measured."}
{"smiles": "CC(C)(O)CC[C@@H](O)[C@](C)(O)[C@H]1CC[C@@]2(O)[C@@H]3CC(=O)[C@@H]4C[C@@H](O)[C@@H](O)C[C@]4(C)[C@H]3CC[C@]12C", "note": "[BR6]", "values": [{"measurement": "Area of leaf", "setting": "0.0001 mg/l, 1 °C, 3 days", "result": 10, "unit": "cm^2"}, {"measurement": "Height", "setting": "0.0001 mg/l, 1 °C, 3 days", "result": 7.1, "unit": "cm"}, {"measurement": "Weight of root", "setting": "0.0001 mg/l, 1 °C, 3 days", "result": 2.8, "unit": "g"}, {"measurement": "Area of leaf", "setting": "0.0001 mg/l, 1 °C, 6 days", "result": 11.2, "unit": "cm^2"}, {"measurement": "Height", "setting": "0.0001 mg/l, 1 °C, 6 days", "result": 7.2, "unit": "cm"}, {"measurement": "Weight of root", "setting": "0.0001 mg/l, 1 °C, 6 days", "result": 3.1, "unit": "g"}, {"measurement": "Area of leaf", "setting": "0.0001 mg/l, 1 °C, 9 days", "result": 12.4, "unit": "cm^2"}, {"measurement": "Height", "setting": "0.0001 mg/l, 1 °C, 9 days", "result": 7.4, "unit": "cm"}, {"measurement": "Weight of root", "setting": "0.0001 mg/l, 1 °C, 9 days", "result": 3.5, "unit": "g"}, {"measurement": "Area of leaf", "setting": "0.0001 mg/l, 1 °C, 12 days", "result": 13, "unit": "cm^2"}, {"measurement": "Height", "setting": "0.0001 mg/l, 1 °C, 12 days", "result": 7.4, "unit": "cm"}, {"measurement": "Number of leaf", "setting": "0.0001 mg/l, 1 °C, 12 days", "result": 3}, {"measurement": "Number of tiller", "setting": "0.0001 mg/l, 1 °C, 12 days", "result": 3}, {"measurement": "Weight of root", "setting": "0.0001 mg/l, 1 °C, 12 days", "result": 3.9, "unit": "g"}, {"measurement": "Area of leaf", "setting": "0.0001 mg/l, 2 °C, 3 days", "result": 10.2, "unit": "cm^2"}, {"measurement": "Height", "setting": "0.0001 mg/l, 2 °C, 3 days", "result": 7.1, "unit": "cm"}, {"measurement": "Weight of root", "setting": "0.0001 mg/l, 2 °C, 3 days", "result": 2.8, "unit": "g"}, {"measurement": "Area of leaf", "setting": "0.0001 mg/l, 2 °C, 6 days", "result": 11.7, "unit": "cm^2"}, {"measurement": "Height", "setting": "0.0001 mg/l, 2 °C, 6 days", "result": 7.2, "unit": "cm"}, {"measurement": "Weight of root", "setting": "0.0001 mg/l, 2 °C, 6 days", "result": 3.0, "unit": "g"}, {"measurement": "Area of leaf", "setting": "0.0001 mg/l, 2 °C, 9 days", "result": 12.6, "unit": "cm^2"}, {"measurement": "Height", "setting": "0.0001 mg/l, 2 °C, 9 days", "result": 7.3, "unit": "cm"}, {"measurement": "Weight of root", "setting": "0.0001 mg/l, 2 °C, 9 days", "result": 3.2, "unit": "g"}, {"measurement": "Area of leaf", "setting": "0.0001 mg/l, 2 °C, 12 days", "result": 13, "unit": "cm^2"}, {"measurement": "Height", "setting": "0.0001 mg/l, 2 °C, 12 days", "result": 7.5, "unit": "cm"}, {"measurement": "Number of leaf", "setting": "0.0001 mg/l, 2 °C, 12 days", "result": 3}, {"measurement": "Number of tiller", "setting": "0.0001 mg/l, 2 °C, 12 days", "result": 3}, {"measurement": "Weight of root", "setting": "0.0001 mg/l, 2 °C, 12 days", "result": 3.9, "unit": "g"}, {"measurement": "Area of leaf", "setting": "0.0001 mg/l, 3 °C, 3 days", "result": 10.4, "unit": "cm^2"}, {"measurement": "Height", "setting": "0.0001 mg/l, 3 °C, 3 days", "result": 7.1, "unit": "cm"}, {"measurement": "Weight of root", "setting": "0.0001 mg/l, 3 °C, 3 days", "result": 2.5, "unit": "g"}, {"measurement": "Area of leaf", "setting": "0.0001 mg/l, 3 °C, 6 days", "result": 12, "unit": "cm^2"}, {"measurement": "Height", "setting": "0.0001 mg/l, 3 °C, 6 days", "result": 7.2, "unit": "cm"}, {"measurement": "Weight of root", "setting": "0.0001 mg/l, 3 °C, 6 days", "result": 2.6, "unit": "g"}, {"measurement": "Area of leaf", "setting": "0.0001 mg/l, 3 °C, 9 days", "result": 12.6, "unit": "cm^2"}, {"measurement": "Height", "setting": "0.0001 mg/l, 3 °C, 9 days", "result": 7.5, "unit": "cm"}, {"measurement": "Weight of root", "setting": "0.0001 mg/l, 3 °C, 9 days", "result": 2.9, "unit": "g"}, {"measurement": "Area of leaf", "setting": "0.0001 mg/l, 3 °C, 12 days", "result": 13.2, "unit": "cm^2"}, {"measurement": "Height", "setting": "0.0001 mg/l, 3 °C, 12 days", "result": 7.6, "unit": "cm"}, {"measurement": "Number of leaf", "setting": "0.0001 mg/l, 3 °C, 12 days", "result": 3}, {"measurement": "Number of tiller", "setting": "0.0001 mg/l, 3 °C, 12 days", "result": 2}, {"measurement": "Weight of root", "setting": "0.0001 mg/l, 3 °C, 12 days", "result": 2.9, "unit": "g"}, {"measurement": "Area of leaf", "setting": "0.0001 mg/l, 4 °C, 3 days", "result": 10.6, "unit": "cm^2"}, {"measurement": "Height", "setting": "0.0001 mg/l, 4 °C, 3 days", "result": 7.1, "unit": "cm"}, {"measurement": "Weight of root", "setting": "0.0001 mg/l, 4 °C, 3 days", "result": 2.5, "unit": "g"}, {"measurement": "Area of leaf", "setting": "0.0001 mg/l, 4 °C, 6 days", "result": 12.2, "unit": "cm^2"}, {"measurement": "Height", "setting": "0.0001 mg/l, 4 °C, 6 days", "result": 7.3, "unit": "cm"}, {"measurement": "Weight of root", "setting": "0.0001 mg/l, 4 °C, 6 days", "result": 2.6, "unit": "g"}, {"measurement": "Area of leaf", "setting": "0.0001 mg/l, 4 °C, 9 days", "result": 13, "unit": "cm^2"}, {"measurement": "Height", "setting": "0.0001 mg/l, 4 °C, 9 days", "result": 7.5, "unit": "cm"}, {"measurement": "Weight of root", "setting": "0.0001 mg/l, 4 °C, 9 days", "result": 2.8, "unit": "g"}, {"measurement": "Area of leaf", "setting": "0.0001 mg/l, 4 °C, 12 days", "result": 13.4, "unit": "cm^2"}, {"measurement": "Height", "setting": "0.0001 mg/l, 4 °C, 12 days", "result": 7.7, "unit": "cm"}, {"measurement": "Number of leaf", "setting": "0.0001 mg/l, 4 °C, 12 days", "result": 3}, {"measurement": "Number of tiller", "setting": "0.0001 mg/l, 4 °C, 12 days", "result": 2}, {"measurement": "Weight of root", "setting": "0.0001 mg/l, 4 °C, 12 days", "result": 2.9, "unit": "g"}, {"measurement": "Area of leaf", "setting": "0.0001 mg/l, 5 °C, 3 days", "result": 10.6, "unit": "cm^2"}, {"measurement": "Height", "setting": "0.0001 mg/l, 5 °C, 3 days", "result": 7.2, "unit": "cm"}, {"measurement": "Weight of root", "setting": "0.0001 mg/l, 5 °C, 3 days", "result": 2.6, "unit": "g"}, {"measurement": "Area of leaf", "setting": "0.0001 mg/l, 5 °C, 6 days", "result": 12.8, "unit": "cm^2"}, {"measurement": "Height", "setting": "0.0001 mg/l, 5 °C, 6 days", "result": 7.5, "unit": "cm"}, {"measurement": "Weight of root", "setting": "0.0001 mg/l, 5 °C, 6 days", "result": 2.7, "unit": "g"}, {"measurement": "Area of leaf", "setting": "0.0001 mg/l, 5 °C, 9 days", "result": 13.6, "unit": "cm^2"}, {"measurement": "Height", "setting": "0.0001 mg/l, 5 °C, 9 days", "result": 7.5, "unit": "cm"}, {"measurement": "Weight of root", "setting": "0.0001 mg/l, 5 °C, 9 days", "result": 2.9, "unit": "g"}, {"measurement": "Area of leaf", "setting": "0.0001 mg/l, 5 °C, 12 days", "result": 14, "unit": "cm^2"}, {"measurement": "Height", "setting": "0.0001 mg/l, 5 °C, 12 days", "result": 7.8, "unit": "cm"}, {"measurement": "Number of leaf", "setting": "0.0001 mg/l, 5 °C, 12 days", "result": 3}, {"measurement": "Number of tiller", "setting": "0.0001 mg/l, 5 °C, 12 days", "result": 2}, {"measurement": "Weight of root", "setting": "0.0001 mg/l, 5 °C, 12 days", "result": 3.0, "unit": "g"}, {"measurement": "Area of leaf", "setting": "0.001 mg/l, 1 °C, 3 days", "result": 10, "unit": "cm^2"}, {"measurement": "Height", "setting": "0.001 mg/l, 1 °C, 3 days", "result": 6.9, "unit": "cm"}, {"measurement": "Weight of root", "setting": "0.001 mg/l, 1 °C, 3 days", "result": 2.8, "unit": "g"}, {"measurement": "Area of leaf", "setting": "0.001 mg/l, 1 °C, 6 days", "result": 11.3, "unit": "cm^2"}, {"measurement": "Height", "setting": "0.001 mg/l, 1 °C, 6 days", "result": 7.1, "unit": "cm"}, {"measurement": "Weight of root", "setting": "0.001 mg/l, 1 °C, 6 days", "result": 3.1, "unit": "g"}, {"measurement": "Area of leaf", "setting": "0.001 mg/l, 1 °C, 9 days", "result": 12.6, "unit": "cm^2"}, {"measurement": "Height", "setting": "0.001 mg/l, 1 °C, 9 days", "result": 7.3, "unit": "cm"}, {"measurement": "Weight of root", "setting": "0.001 mg/l, 1 °C, 9 days", "result": 3.4, "unit": "g"}, {"measurement": "Area of leaf", "setting": "0.001 mg/l, 1 °C, 12 days", "result": 13, "unit": "cm^2"}, {"measurement": "Height", "setting": "0.001 mg/l, 1 °C, 12 days", "result": 7.3, "unit": "cm"}, {"measurement": "Number of leaf", "setting": "0.001 mg/l, 1 °C, 12 days", "result": 3}, {"measurement": "Number of tiller", "setting": "0.001 mg/l, 1 °C, 12 days", "result": 3}, {"measurement": "Weight of root", "setting": "0.001 mg/l, 1 °C, 12 days", "result": 3.9, "unit": "g"}, {"measurement": "Area of leaf", "setting": "0.001 mg/l, 2 °C, 3 days", "result": 10.3, "unit": "cm^2"}, {"measurement": "Height", "setting": "0.001 mg/l, 2 °C, 3 days", "result": 6.9, "unit": "cm"}, {"measurement": "Weight of root", "setting": "0.001 mg/l, 2 °C, 3 days", "result": 2.8, "unit": "g"}]}
